# Measurements taken from patent US9572831B2, “Composition and method for sulfated non-anticoagulant low molecular weight heparins in cancer and tumor metastasis” (priority 2013, dated 2017).
# Legend:
# [1] = Bleeding time (tail transection); type: in vivo, mice; details: dose not stated; vs control
# Description: Bleeding time in mice was tested during the period of receiving test compounds. Mice were anesthetized with isoflurane inhalation. By using a scalpel, 0.5 cm of the distal end of the tail was transected, and the remaining length of tail was immersed immediately into a 37° C. solution of saline. Bleeding time was measured from the time of tail transection until visible bleeding could no longer be detected. The experiment was repeated 3 times with different groups and concentrations.
# MPanc96-luc cells = experiment: CAM cancer implant model, MPanc96; type: in vivo, chick embryo; details: 1.0 ug/CAM
# Description: The CAM cancer implant model was used in conjunction with the present invention to study the effect of heparin derivatives (S-NACH versus tinzaparin) along with gemcitabine at 1.0 μg/CAM on tumor angiogenesis and tumor growth. MPanc96-luc cells in exponential growth phase were harvested as described above. One×10^6 cells in 30 μl of medium were mixed with an equal volume of Matrigel and implanted in the chick Chorioallantoic membrane (CAM) model of 7-day old chick eggs. The effect of these treatments was determined after 8 days of implantation. Results are presented as a mean tumor weight (g) per treatment group and tumor hemoglobin (mg/dl)±SEM, n=10 per group. For the Matrigel portions of the models, tumor angiogenesis is evaluated with tumor weight analysis and Drabkin's Assay for hemoglobin concentration (angiogenesis index). PBS was used as a negative control while breast cancer cells were used as a positive control and to initiate tumorigenesis. The tumor cells were MCF-7/DXR (human breast adenocarcinoma), and 1-2 million cells per CAM were used. […] By re-weighing the tubes with the tumor inside, the weight of the tumor itself could be recorded. […] Specimens were centrifuged, and the hemoglobin content was measured using Drabkin's reagent (Sigma, St Louis, Mo.), run in duplicate using the supernatant. […]
# [2] = tested on: pancreatic (Panc-1) tumor; experiment: CAM tumor implant model, Panc-1; type: in vivo; details: 10 ug/CAM
# [3] = tested on: MCF7 DOX resistant cancer cells; experiment: Orthotopic implant of MCF7 DOX resistant cells in nude mice; type: in vivo; details: 10 mg/Kg, SC daily for 15 days, vs control
# Description: Immune-deficient female NCr nude homozygous mice aged 5-6 weeks weighing 18-20 g were purchased from Harlan Laboratories (Indianapolis, Ind.). All animal studies were conducted in accordance with the institutional guidelines for humane animal treatment. Mice were maintained under specific pathogen-free conditions and housed under controlled conditions of temperature (20-24° C.), humidity (60-70%), and 12 h light/dark cycle with ad libitum access to water and food. Mice were allowed to acclimatize for 5 days prior to the start of study.
# Orthotopic implant of 0.5 million of MCF7 DOX resistant cancer cells in nude mice result in progressive rapid tumor growth approaching 150 mm3 after 5 days of implant.
# human umbilical vein = experiment: In vitro human vessel perfusion model; type: cell-based; details: FIG. 3
# Source text: Based on published data obtained on the tumor/vessel adherence characteristics in this model [Mousa S A., Comparative pharmacodynamic assessment of the antiangiogenesis activity of heparin and low-molecular-weight heparin fractions: structure function relationship, Clin Appl Thromb Hemost, 2013, 19(1):48-54], umbilical vein was utilized for all studies. Following informed consent, fresh umbilical cord was obtained, using a sterile technique, from the placenta following normal delivery […] from patients at local hospitals. Approximately 20 cm of the cord is excised, rinsed and wiped free of blood using cold 0.9% saline and sterile gauze. Then cold saline was used to flush the vein clean of blood. Two sections of umbilical cord (approximately 3 cm each) are cut longitudinally to expose the vein surface and are pinned to the silastic base of the chamber using 27 G×1 inch needles. […]
# The vein segments were perfused for 24 hours with cancer cells in platelet-rich plasma (PRP) under venous flow conditions (70 ml/min). […] Blood gases of the perfusate were measured 15 minutes after the start and just prior to the end of the perfusion period to confirm that physiological conditions were maintained. […] Statistical significance was determined by using a paired t-test. […]
substance,measurement,setting,value
tinzaparin,bleeding time,[1],extended the bleeding significantly
same,tumor growth or tumor angiogenesis,MPanc96-luc cells,maximally inhibited
same,tumor growth or tumor angiogenesis,[2],inhibited
same,tumor growth progression,[3],halting tumor growth progression
same,pancreatic cancer cell adhesion,human umbilical vein,comparable anti-adhesive potency
